Measured values from US20120003310A1 (priority 2009, published 2012).

Tests used:
[1] = Rasagiline citrate salt formation in solvents: extractable free rasagiline base (toluene extraction, TLC), pH, NMR equivalents; conditions: for Extracted R-PAI (%) / Extracted R-PAI (amount): free rasagiline base extracted or filtered from the citrate salt solution, solvent and mole proportions per example; for pH (after extraction of R-PAI): value in parentheses
Source text: (§1) The combined toluenic extract was evaporated to dryness.
as §1

[2] = per reference; cited from earlier work
[3] = per reference; cited from earlier work; remark: listed apart in the source
[4] = citrate salt of the drug substance, per reference; cited from earlier work
[5] = such as hexane, toluene and ethylacetate
[6] = AZILECT Product Label, May 2006; cited from earlier work
[7] = Aqueous solubility of rasagiline base and rasagiline salts
[8] = Hygroscopicity: citrate salts exposed to atmospheric air in open dishes at ambient temperature; type: physicochemical; conditions: for Changes on exposure to atmosphere (appearance): open dish, ambient temperature
Source text: (§2) The changes were observed and recorded.

[9] = Appearance of citrate salts stored in closed sealed glass vials in refrigerator at 7±2° C.; type: physicochemical; conditions: sealed glass vial, refrigerator 7±2° C.
Source text: as §2

[10] = time of exposure 1:50-2:00 hrs:min

For C#CCN[C@@H]1CCc2ccccc21.O=C(O)CC(O)(CC(=O)O)C(=O)O [Example 19.1], the “Extracted R-PAI (%)” value [1] was 1.75% and the “Extracted R-PAI (amount)” value [1] was 0.06 g.
For Tosylate, the Water solubility [2] is given as 60 to 70 mg/mL.
For C#CCN[C@@H]1CCc2ccccc21.O=C(O)CC(O)(CC(=O)O)C(=O)O, the “free rasagiline that may be extracted from the aqueous solution of the salt” value [1] was “A few percent” and the “stability of the salt in solvents” value ([1]; aqueous and other solutions (alcohol, MEK, acetone)) was “stable in most solvents”.
With C#CCN[C@@H]1CCc2ccccc21.O=C(O)CC(O)(CC(=O)O)C(=O)O [Example 19.6] the “Extracted R-PAI (%)” value [1] was “(43.3%)” and the “Extracted R-PAI (amount)” value [1] was 4.44 g.
For C#CCN[C@@H]1CCc2ccccc21 [Solid R-PAI (Free Base)], the Water solubility [2] is listed as “low” and the “Hygroscopicity by KF” value [3] is listed as “Not hygroscopic”.
In the case of Cc1[nH]c(C=C2C(=O)Nc3ccc(F)cc32)c(C)c1C(=O)NCCN1CCCC1, the Polynorpb [4] is listed as “Crystalline”.
For N#Cc1ccc2[nH]c(O)c(-c3ccc(CN4CCOCC4)cn3)c2c1, the Polynorpb [4] is listed as “Crystalline”.
For CN1CCN(c2ccccc2C=C2SCCN(c3ccc(Cl)c(Cl)c3)C2=O)CC1, the Polynorpb [4] is listed as “Crystalline”.
For C#CCN[C@@H]1CCc2ccccc21 [rasagiline, R(+)-N-propargyl-1-aminoindan], the “solubility in non-polar organic solvents” value [5] is given as “very soluble”, the absolute bioavailability [6] is given as “about 36%” and the “amount dissolving in aqueous reaction solution of citric acid” value [7] is given as “more than 10 wt %”.
In the case of Cc1ccc(NC(=O)c2ccc(CN3CCN(C)CC3)cc2)cc1Nc1nccc(-c2cccnc2)n1, the Polynorpb [4] is listed as “Crystalline”.
In the case of O=C(O)CC(O)(CC(=O)O)C(=O)O.c1cnc2cc3c(cc2n1)C1CNCC3C1, the Polynorpb [4] is listed as “Crystalline”.
In the case of C[C@@H]1CCCN1CCc1ccc2cc(-n3ncccc3=O)ccc2c1, the Polynorpb [4] is listed as “Crystalline”.
In the case of Cl [Chloride], the “Hygroscopicity by KF” value [3] is listed as “Not hygroscopic”.
With C#CCN[C@@H]1CCc2ccccc21.C#CCN[C@@H]1CCc2ccccc21.O=C(O)CC(O)(CC(=O)O)C(=O)O [Example 4c] the “Changes on exposure to atmosphere (appearance)” value (“Changes on exposure” for short) ([8]; time of exposure 0:00 hrs:min) was “Powder”, the “Changes on exposure” value ([8]; time of exposure 0:50-1:00 hrs:min) was “Powder” and the “Changes on exposure” value ([8]; time of exposure 0:30 hrs:min) was “Powder”. The “Changes on exposure” value [8, 10] was “Powder”, the “Changes on exposure” value ([8]; time of exposure 5:00 hrs:min) was “Lump powder” and the Appearance ([9]; storage 0 months) was “White powder”. The Appearance ([9]; storage 3 months) was “White powder” and the Appearance ([9]; storage 6 months) was “White powder”.
In the case of rasagiline citrate, the “hygroscopicity compared to rasagiline base and other rasagiline salts” value ([8]; Tables 22b and 22c) is reported as “highest hygroscopicity” and the “water solubility compared to rasagiline base and other rasagiline salts” value ([7]; Tables 22b and 22c) is reported as “highest water solubility”.
In the case of C#CCN[C@@H]1CCc2ccccc21 [Mesylate], the “Hygroscopicity by KF” value [3] is given as “Not hygroscopic”.
For C#CCN[C@@H]1CCc2ccccc21.O=C(O)CC(O)(CC(=O)O)C(=O)O [Example 19.7], the “Extracted R-PAI (%)” value [1] was “(38.2%)” and the “Extracted R-PAI (amount)” value [1] was 3.92 g.
In the case of C#CCN[C@@H]1CCc2ccccc21.O=C(O)CC(O)(CC(=O)O)C(=O)O [Example 4b], the “Changes on exposure” value ([8]; time of exposure 0:00 hrs:min) is reported as “Powder”, the “Changes on exposure” value [8, 10] is reported as “Semi-solid” and the “Changes on exposure” value ([8]; time of exposure 6:00 hrs:min) is reported as “Syrup”. The “Changes on exposure” value ([8]; time of exposure 7:00 hrs:min) was “Syrup”, the Appearance ([9]; storage 0 months) was “White powder” and the Appearance ([9]; storage 3 months) was “White powder”. The Appearance ([9]; storage 6 months) was “White powder”.
For C[C@@H]1CCN(C(=O)CC#N)C[C@@H]1N(C)c1ncnc2[nH]ccc12, the Polynorpb [4] is listed as “Crystalline”.
For C#CCN[C@@H]1CCc2ccccc21.CCS(=O)(=O)O [Esylate], the Water solubility [2] is given as “>=300 mg/ml”.
In the case of C#CCN[C@@H]1CCc2ccccc21.C#CCN[C@@H]1CCc2ccccc21.O=S(=O)(O)CCS(=O)(=O)O [Edisilate], the “Hygroscopicity by KF” value [3] is listed as “Not hygroscopic”.
With C#CCN[C@@H]1CCc2ccccc21.O=C(O)CC(O)(CC(=O)O)C(=O)O [Example 19.14] the “pH (after extraction of R-PAI)” value [1] was 3.49 and the pH ([1]; value outside parentheses, before extraction of R-PAI) was 3.53.
In the case of Oxalate, the “Hygroscopicity by KF” value [3] is listed as “Not hygroscopic”.
In the case of Phosphate, the Water solubility [2] is given as “>=720 mg/ml”.
For C#CCN[C@@H]1CCc2ccccc21.C#CCN[C@@H]1CCc2ccccc21.C#CCN[C@@H]1CCc2ccccc21.O=C(O)CC(O)(CC(=O)O)C(=O)O [Example 4d], the “Changes on exposure” value ([8]; time of exposure 0:00 hrs:min) was “Powder”, the “Changes on exposure” value ([8]; time of exposure 0:30 hrs:min) was “Powder” and the “Changes on exposure” value ([8]; time of exposure 5:00 hrs:min) was “Semi-solid”. For the same compound, the “Changes on exposure” value ([8]; time of exposure 6:00 hrs:min) was “Semi-solid”, the Appearance ([9]; storage 0 months) was “White powder” and the Appearance ([9]; storage 3 months) was “White powder”. For the same compound, the Appearance ([9]; storage 6 months) was “White powder”.
In the case of C#CCN[C@@H]1CCc2ccccc21.O=C(O)CC(O)(CC(=O)O)C(=O)O [Example 19.13], the “Extracted R-PAI (%)” value [1] is reported as “(48%)” and the “Extracted R-PAI (amount)” value [1] is reported as 2.47 g.
With C#CCN[C@@H]1CCc2ccccc21.O=C(O)CC(O)(CC(=O)O)C(=O)O [Example 19.17] the “pH (after extraction of R-PAI)” value [1] was “(3.41)”.
For C#CCN[C@@H]1CCc2ccccc21.O=C(O)CC(O)(CC(=O)O)C(=O)O [Example 19.4], the “Extracted R-PAI (%)” value [1] was “(22%)” and the “Extracted R-PAI (amount)” value [1] was 1.51 g.
In the case of O=C(O)CC(O)(CC(=O)O)C(=O)O [citric acid], the “Hygroscopicity by KF” value [3] is listed as “low”.
